Each block holds one molecule with its values, some of them ahead of it.
System: LG0703-F948-PDC complex spheroid viability
Assay: Anticancer human tumor LG0703-F948-PDC patient-derived lung adenocarcinoma cell line growth inhibition [RAS]
Conditions: for IC50: curve of first compound; for viability, T/C: stronger effect = lower value
Summary of the method: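 Multi-cell-type spheroids: tumor cells plus HUVEC endothelial cells and mesenchymal stem cells. RAS-pathway inhibitors were combined with targeted agents, each dosed in half-log steps down from clinical Cmax, or from 10 microM when Cmax was unknown.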
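Also: spheroids exposed to agents for 7 days.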
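For viability, T/C in this document: 100% = DMSO vehicle wells.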

IC50 (second compound 0.00316 µM): 38.6 nM | IC50 (second compound 0.01 µM): 47.8 nM | IC50 (second compound 0.0316 µM): 42.8 nM | IC50 (second compound 0.1 µM): 51.7 nM | IC50 (second compound 0.316 µM): 59.1 nM | IC50 (second compound 1 µM): 41.6 nM
SMILES: NC1c2ccccc2OC12CCN(c1cnc3c(N4CCCc5ncccc54)n[nH]c3n1)CC2 (configuration not stated) + C=CC(=O)N1CCN(c2nc(OCC3CCCN3C)nc3c(F)c(-c4nc(N)cc(C)c4C(F)(F)F)c(Cl)cc23)C(C)C1
viability, T/C (second compound 0.00316 µM, first compound 0.0316 µM): 54.5% | viability, T/C (second compound 0.00316 µM, first compound 0.1 µM): 31.4% | viability, T/C (second compound 0.00316 µM, first compound 0.316 µM): 16% | viability, T/C (second compound 0.00316 µM, first compound 1 µM): 10.9% | viability, T/C (second compound 0.00316 µM, first compound 3.16 µM): 4.54% | viability, T/C (second compound 0.00316 µM, first compound 10 µM): 2.7% | viability, T/C (second compound 0.01 µM, first compound 0.0316 µM): 58.3% | viability, T/C (second compound 0.01 µM, first compound 0.1 µM): 35% | viability, T/C (second compound 0.01 µM, first compound 0.316 µM): 19.9% | viability, T/C (second compound 0.01 µM, first compound 1 µM): 8.08% | viability, T/C (second compound 0.01 µM, first compound 3.16 µM): 5.69% | viability, T/C (second compound 0.01 µM, first compound 10 µM): 1.86% | viability, T/C (second compound 0.0316 µM, first compound 0.0316 µM): 55.8% | viability, T/C (second compound 0.0316 µM, first compound 0.1 µM): 34.1% | viability, T/C (second compound 0.0316 µM, first compound 0.316 µM): 20.5% | viability, T/C (second compound 0.0316 µM, first compound 1 µM): 10.8% | viability, T/C (second compound 0.0316 µM, first compound 3.16 µM): 4.57% | viability, T/C (second compound 0.0316 µM, first compound 10 µM): 1.97% | viability, T/C (second compound 0.1 µM, first compound 0.0316 µM): 60.3% | viability, T/C (second compound 0.1 µM, first compound 0.1 µM): 35.2% | viability, T/C (second compound 0.1 µM, first compound 0.316 µM): 22.8% | viability, T/C (second compound 0.1 µM, first compound 1 µM): 7.04% | viability, T/C (second compound 0.1 µM, first compound 3.16 µM): 4.16% | viability, T/C (second compound 0.1 µM, first compound 10 µM): 1.66% | viability, T/C (second compound 0.316 µM, first compound 0.0316 µM): 69.5% | viability, T/C (second compound 0.316 µM, first compound 0.1 µM): 32.4% | viability, T/C (second compound 0.316 µM, first compound 0.316 µM): 17.3% | viability, T/C (second compound 0.316 µM, first compound 1 µM): 8.03% | viability, T/C (second compound 0.316 µM, first compound 3.16 µM): 4.54% | viability, T/C (second compound 0.316 µM, first compound 10 µM): 1.99% | viability, T/C (second compound 1 µM, first compound 0.0316 µM): 56.2% | viability, T/C (second compound 1 µM, first compound 0.1 µM): 30.1% | viability, T/C (second compound 1 µM, first compound 0.316 µM): 19.4% | viability, T/C (second compound 1 µM, first compound 1 µM): 8.31% | viability, T/C (second compound 1 µM, first compound 3.16 µM): 6.93% | viability, T/C (second compound 1 µM, first compound 10 µM): 3.04%

SMILES: CCc1c2c(nc3ccc(O)cc13)-c1cc3c(c(=O)n1C2)COC(=O)[C@]3(O)CC
viability, T/C (compound 0.003 µM): 98.3% [middle of 4 runs] | viability, T/C (compound 0.03 µM): 65.8% [middle of 4 runs] | viability, T/C (compound 0.3 µM): 31.6% [middle of 4 runs]

IC50 (second compound 0.000949 µM): 1800 nM | IC50 (second compound 0.003 µM): 2750 nM | IC50 (second compound 0.00949 µM): 858 nM | IC50 (second compound 0.03 µM): 1420 nM | IC50 (second compound 0.0949 µM): 511 nM | IC50 (second compound 0.3 µM): < 31.6 nM
SMILES: CC(C)NCC(C(=O)N1CCN(c2ncnc3c2C(C)CC3O)CC1)c1ccc(Cl)cc1 (configuration not stated) + CCn1c(-c2cccnc2C(C)OC)c2c3cc(ccc31)N1CCOC(CC(NC(=O)C(C(C)C)N(C)C(=O)C3(F)CCN(C(=O)C#CC(C)(C)N(C)C)CC3)C(=O)N3CCCC(N3)C(=O)OCC(C)(C)C2)C1
viability, T/C (second compound 0.000949 µM, first compound 0.0316 µM): 103% | viability, T/C (second compound 0.000949 µM, first compound 0.1 µM): 86% | viability, T/C (second compound 0.000949 µM, first compound 0.316 µM): 73.6% | viability, T/C (second compound 0.000949 µM, first compound 1 µM): 51.9% | viability, T/C (second compound 0.000949 µM, first compound 3.16 µM): 47.4% | viability, T/C (second compound 0.000949 µM, first compound 10 µM): 35.6% | viability, T/C (second compound 0.003 µM, first compound 0.0316 µM): 104% | viability, T/C (second compound 0.003 µM, first compound 0.1 µM): 79.8% | viability, T/C (second compound 0.003 µM, first compound 0.316 µM): 77.9% | viability, T/C (second compound 0.003 µM, first compound 1 µM): 56.3% | viability, T/C (second compound 0.003 µM, first compound 3.16 µM): 50.8% | viability, T/C (second compound 0.003 µM, first compound 10 µM): 38.4% | viability, T/C (second compound 0.00949 µM, first compound 0.0316 µM): 100% | viability, T/C (second compound 0.00949 µM, first compound 0.1 µM): 98% | viability, T/C (second compound 0.00949 µM, first compound 0.316 µM): 65.5% | viability, T/C (second compound 0.00949 µM, first compound 1 µM): 49% | viability, T/C (second compound 0.00949 µM, first compound 3.16 µM): 52.5% | viability, T/C (second compound 0.00949 µM, first compound 10 µM): 39.3% | viability, T/C (second compound 0.03 µM, first compound 0.0316 µM): 99.3% | viability, T/C (second compound 0.03 µM, first compound 0.1 µM): 86.4% | viability, T/C (second compound 0.03 µM, first compound 0.316 µM): 67.9% | viability, T/C (second compound 0.03 µM, first compound 1 µM): 53.3% | viability, T/C (second compound 0.03 µM, first compound 3.16 µM): 43.1% | viability, T/C (second compound 0.03 µM, first compound 10 µM): 35.1% | viability, T/C (second compound 0.0949 µM, first compound 0.0316 µM): 74.8% | viability, T/C (second compound 0.0949 µM, first compound 0.1 µM): 66% | viability, T/C (second compound 0.0949 µM, first compound 0.316 µM): 51.3% | viability, T/C (second compound 0.0949 µM, first compound 1 µM): 42.4% | viability, T/C (second compound 0.0949 µM, first compound 3.16 µM): 42.5% | viability, T/C (second compound 0.0949 µM, first compound 10 µM): 28.9% | viability, T/C (second compound 0.3 µM, first compound 0.0316 µM): 46.8% | viability, T/C (second compound 0.3 µM, first compound 0.1 µM): 38.6% | viability, T/C (second compound 0.3 µM, first compound 0.316 µM): 33.6% | viability, T/C (second compound 0.3 µM, first compound 1 µM): 23.8% | viability, T/C (second compound 0.3 µM, first compound 3.16 µM): 27.4% | viability, T/C (second compound 0.3 µM, first compound 10 µM): 15.5%

— PubChem BioAssay AID2060890 (Molecular Pharmacology Branch, DTP, NCI, 2025)
